Calls of active or inactive are those of the source. The rule behind the calls is not given here.
What was measured:
Mus musculus [1] = assay: In vivo activity tested against C3H mice bearing panc-03 murine tumor measured as % treated/control calculated at 561 mg/kg (po); assay type: functional
Mus musculus [2] = assay: In vivo activity tested against C3H mice bearing panc-03 murine tumor measured as log Kill value was based on tumors that grew at 1010 mg/kg (po); assay type: functional, organism-based; parameters: dose 1010 mg/kg
Mus musculus [3] = assay: In vivo activity tested against C3H mice bearing panc-03 murine tumor measured as activity rating at 561 mg/kg (po); assay type: functional
Mus musculus [4] = assay: In vivo activity tested against C3H mice bearing panc-03 murine tumor measured as body weight loss at 561 mg/kg (po); assay type: functional
Mus musculus [5] = assay: In vivo activity tested against C3H mice bearing panc-03 murine tumor measured as log Kill value was based on tumors that grew at 561 mg/kg (po); None; assay type: functional, organism-based; parameters: dose 561 mg/kg
Mus musculus [6] = assay: In vivo activity tested against C3H mice bearing panc-03 murine tumor measured as body weight loss at 1010 mg/kg (po); assay type: functional
Mus musculus [7] = assay: In vivo activity tested against C3H mice bearing panc-03 murine tumor measured as % treated/control calculated at 1010 mg/kg (po); assay type: functional
Mus musculus [8] = assay: In vivo activity tested against C3H mice bearing colon adenocarcinoma -38(colon-38) tumor measured as % treated/control calculated at 1433 mg/kg (po); assay type: functional
Mus musculus [9] = assay: In vivo activity tested against C3H mice bearing colon adenocarcinoma -38(colon-38) tumor measured as log Kill value was based on tumors that grew at 1433 mg/kg (po); assay type: functional, organism-based; parameters: dose 1433 mg/kg
Mus musculus [10] = assay: In vivo activity tested against C3H mice bearing colon adenocarcinoma -38(colon-38) tumor measured as body weight loss at 1433 mg/kg (po); assay type: functional
Mus musculus [11] = assay: In vivo activity tested against C3H mice bearing colon adenocarcinoma -38(colon-38) tumor measured as activity rating at 1433 mg/kg (po); assay type: functional
Mus musculus [12] = assay: In vivo activity tested against C3H mice bearing mammary adenocarcinoma -17/ADR tumor measured as % treated/control calculated at 162 mg/kg (po); assay type: functional
Mus musculus [13] = assay: In vivo activity tested against C3H mice bearing mammary adenocarcinoma -16c/ADR tumor measured as body weight loss at 164 mg/kg (po); assay type: functional
Mus musculus [14] = assay: In vivo activity tested against C3H mice bearing panc-03 murine tumor measured as body weight loss at 180 mg/kg (po); assay type: functional
Mus musculus [15] = assay: In vivo activity tested against C3H mice bearing panc-03 murine tumor measured as log Kill value was based on tumors that grew at 180 mg/kg (po); assay type: functional, organism-based; parameters: dose 180 mg/kg
Mus musculus [16] = assay: In vivo activity tested against C3H mice bearing panc-03 murine tumor measured as body weight loss at 324 mg/kg (po); assay type: functional
Mus musculus [17] = assay: In vivo activity tested against C3H mice bearing panc-03 murine tumor measured as log Kill value was based on tumors that grew at 324 mg/kg (po); assay type: functional, organism-based; parameters: dose 324 mg/kg
Mus musculus [18] = assay: In vivo activity tested against C3H mice bearing panc-03 murine tumor measured as % treated/control calculated at 180 mg/kg (po); assay type: functional
Mus musculus [19] = assay: In vivo activity tested against C3H mice bearing mammary adenocarcinoma -16c/ADR tumor measured as log Kill value was based on tumors that grew at 164 mg/kg (po); assay type: functional, organism-based; parameters: dose 164 mg/kg
Mus musculus [20] = assay: In vivo activity tested against C3H mice bearing mammary adenocarcinoma -17/ADR tumor measured as % treated/control calculated at 99 mg/kg (po); assay type: functional
Mus musculus [21] = assay: In vivo activity tested against C3H mice bearing panc-03 murine tumor measured as % treated/control calculated at 324 mg/kg (po); assay type: functional
Mus musculus [22] = assay: In vivo activity tested against C3H mice bearing mammary adenocarcinoma -17/ADR tumor measured as log Kill value was based on tumors that grew at 99 mg/kg (po); assay type: functional, organism-based; parameters: dose 99 mg/kg
Mus musculus [23] = assay: In vivo activity tested against C3H mice bearing mammary adenocarcinoma -17/ADR tumor measured as body weight loss at 99 mg/kg (po); assay type: functional
Mus musculus [24] = assay: In vivo activity tested against C3H mice bearing mammary adenocarcinoma -17/ADR tumor measured as body weight loss at 162 mg/kg (po); assay type: functional
Mus musculus [25] = assay: In vivo activity tested against C3H mice bearing mammary adenocarcinoma -16c/ADR tumor measured as % treated/control calculated at 164 mg/kg (po); assay type: functional
Mus musculus [26] = assay: In vivo activity tested against C3H mice bearing mammary adenocarcinoma -17/ADR tumor measured as log Kill value was based on tumors that grew at 162 mg/kg (po); assay type: functional, organism-based; parameters: dose 162 mg/kg
Mus musculus [27] = assay: In vivo activity tested against C3H mice bearing colon adenocarcinoma -38(colon-38) tumor measured as body weight loss at 195 mg/kg (po); assay type: functional
Mus musculus [28] = assay: In vivo activity tested against C3H mice bearing mammary adenocarcinoma -16c/ADR tumor measured as log Kill value was based on tumors that grew at 455 mg/kg (po); assay type: functional, organism-based; parameters: dose 455 mg/kg
Mus musculus [29] = assay: In vivo activity tested against C3H mice bearing mammary adenocarcinoma -16c/ADR tumor measured as body weight loss at 455 mg/kg (po); assay type: functional
Mus musculus [30] = assay: In vivo activity tested against C3H mice bearing mammary adenocarcinoma -17/ADR tumor measured as log Kill value was based on tumors that grew at 679 mg/kg (po); assay type: functional, organism-based; parameters: dose 679 mg/kg
Mus musculus [31] = assay: In vivo activity tested against C3H mice bearing mammary adenocarcinoma -17/ADR tumor measured as body weight loss at 407.4 mg/kg (po); assay type: functional
Mus musculus [32] = assay: In vivo activity tested against C3H mice bearing mammary adenocarcinoma -17/ADR tumor measured as log Kill value was based on tumors that grew at 407.4 mg/kg (po); assay type: functional, organism-based; parameters: dose 407.4 mg/kg
Mus musculus [33] = assay: In vivo activity tested against C3H mice bearing mammary adenocarcinoma -16c/ADR tumor measured as % treated/control calculated at 582 mg/kg (po); assay type: functional
Mus musculus [34] = assay: In vivo activity tested against C3H mice bearing mammary adenocarcinoma -16c/ADR tumor measured as log Kill value was based on tumors that grew at 582 mg/kg (po); assay type: functional, organism-based; parameters: dose 582 mg/kg
Mus musculus [35] = assay: In vivo activity tested against C3H mice bearing mammary adenocarcinoma -17/ADR tumor measured as body weight loss at 679 mg/kg (po); assay type: functional
Mus musculus [36] = assay: In vivo activity tested against C3H mice bearing mammary adenocarcinoma -17/ADR tumor measured as % treated/control calculated at 679 mg/kg (po); assay type: functional
Mus musculus [37] = assay: In vivo activity tested against C3H mice bearing mammary adenocarcinoma -17/ADR tumor measured as % treated/control calculated at 407.4 mg/kg (po); assay type: functional
Mus musculus [38] = assay: In vivo activity tested against C3H mice bearing mammary adenocarcinoma -16c/ADR tumor measured as % treated/control calculated at 455 mg/kg (po); assay type: functional
Mus musculus [39] = assay: In vivo activity tested against C3H mice bearing colon adenocarcinoma -38(colon-38) tumor measured as log Kill value was based on tumors that grew at 195 mg/kg (po); assay type: functional, organism-based; parameters: dose 195 mg/kg
Mus musculus [40] = assay: In vivo activity tested against C3H mice bearing mammary adenocarcinoma -16c/ADR tumor measured as body weight loss at 582 mg/kg (po); assay type: functional
Mus musculus [41] = assay: In vivo activity tested against C3H mice bearing colon adenocarcinoma -38(colon-38) tumor measured as log Kill value was based on tumors that grew at 585 mg/kg (po); assay type: functional, organism-based; parameters: dose 585 mg/kg
Mus musculus [42] = assay: In vivo activity tested against C3H mice bearing colon adenocarcinoma -38(colon-38) tumor measured as % treated/control calculated at 585 mg/kg (po); assay type: functional
Mus musculus [43] = assay: In vivo activity tested against C3H mice bearing colon adenocarcinoma -38(colon-38) tumor measured as body weight loss at 585 mg/kg (po); assay type: functional
Mus musculus [44] = assay: In vivo activity tested against C3H mice bearing colon adenocarcinoma -38(colon-38) tumor measured as % treated/control calculated at 195 mg/kg (po); assay type: functional
Mus musculus [45] = assay: In vivo activity tested against C3H mice bearing colon adenocarcinoma -38(colon-38) tumor measured as % treated/control calculated at 2686 mg/kg (po); assay type: functional
Mus musculus [46] = assay: In vivo activity tested against C3H mice bearing colon adenocarcinoma -38(colon-38) tumor measured as log Kill value was based on tumors that grew at 2686 mg/kg (po); assay type: functional, organism-based; parameters: dose 2686 mg/kg
Mus musculus [47] = assay: In vivo activity tested against C3H mice bearing colon adenocarcinoma -38(colon-38) tumor measured as activity rating at 2686 mg/kg (po); assay type: functional
Mus musculus [48] = assay: In vivo activity tested against C3H mice bearing colon adenocarcinoma -38(colon-38) tumor measured as body weight loss at 2686 mg/kg (po); assay type: functional
Mus musculus [49] = assay: In vivo activity tested against C3H mice bearing mammary adenocarcinoma -17/ADR tumor measured as log Kill value was based on tumors that grew at 216 mg/kg (po); assay type: functional, organism-based; parameters: dose 216 mg/kg
Mus musculus [50] = assay: In vivo activity tested against C3H mice bearing panc-03 murine tumor measured as log Kill value was based on tumors that grew at 144 mg/kg (po); assay type: functional, organism-based; parameters: dose 144 mg/kg
Mus musculus [51] = assay: In vivo activity tested against C3H mice bearing panc-03 murine tumor measured as body weight loss at 144 mg/kg (po); assay type: functional
Mus musculus [52] = assay: In vivo activity tested against C3H mice bearing mammary adenocarcinoma -17/ADR tumor measured as body weight loss at 216 mg/kg (po); assay type: functional
Mus musculus [53] = assay: In vivo activity tested against C3H mice bearing mammary adenocarcinoma -17/ADR tumor measured as % treated/control calculated at 216 mg/kg (po); assay type: functional
Mus musculus [54] = assay: In vivo activity tested against C3H mice bearing panc-03 murine tumor measured as % treated/control calculated at 144 mg/kg (po); assay type: functional

SMILES: CC(Oc1ccc(Oc2cnc3c(Cl)cccc3n2)cc1)C(=O)O (centres undefined)
- T/C (Mus musculus [1]): >100%
- Log kill (Mus musculus [2]): 0.27
- Activity rating (Mus musculus [3]): <0.7
- Body weight loss (Mus musculus [4]): 2%
- Log kill (Mus musculus [5]): inactive
- Body weight loss (Mus musculus [6]): -2%
- T/C (Mus musculus [7]): 59%

SMILES: COC(=O)C(C)Oc1ccc(Oc2cnc3ccc(F)cc3n2)cc1 (centres undefined)
- T/C (Mus musculus [8]): 34%
- Log kill (Mus musculus [9]): 0.8
- Body weight loss (Mus musculus [10]): 1%
- Activity rating (Mus musculus [11]): 1.2

SMILES: COc1c(Cl)ccc2ncc(Oc3ccc(OC(C)C(=O)O)cc3)nc12 (centres undefined)
- T/C (Mus musculus [12]): 7%
- Body weight loss (Mus musculus [13]): -6.2%
- Body weight loss (Mus musculus [14]): 5%
- Log kill (Mus musculus [15]): 0.64
- Body weight loss (Mus musculus [16]): -15%
- Log kill (Mus musculus [17]): 3
- T/C (Mus musculus [18]): 33%
- Log kill (Mus musculus [19]): 1.7
- T/C (Mus musculus [20]): 13%
- T/C (Mus musculus [21]): 0%
- Log kill (Mus musculus [22]): 1.2
- Body weight loss (Mus musculus [23]): -1.5%
- Body weight loss (Mus musculus [24]): -16.4%
- T/C (Mus musculus [25]): 7.5%
- Log kill (Mus musculus [26]): 1.5

SMILES: COc1ccc2ncc(Oc3ccc(OC(C)C(=O)O)cc3)nc2c1 (centres undefined)
- Body weight loss (Mus musculus [27]): 0%
- Log kill (Mus musculus [28]): 2.1
- Body weight loss (Mus musculus [29]): -1.2%
- Log kill (Mus musculus [30]): 3
- Body weight loss (Mus musculus [31]): 0%
- Log kill (Mus musculus [32]): 1.7
- T/C (Mus musculus [33]): 0%
- Log kill (Mus musculus [34]): 2.7
- Body weight loss (Mus musculus [35]): -4.6%
- T/C (Mus musculus [36]): 4.6%
- T/C (Mus musculus [37]): 6.4%
- T/C (Mus musculus [38]): 8%
- Log kill (Mus musculus [39]): 0.12
- Body weight loss (Mus musculus [40]): -13.6%
- Log kill (Mus musculus [41]): 1.73
- T/C (Mus musculus [42]): 23%
- Body weight loss (Mus musculus [43]): 0%
- T/C (Mus musculus [44]): 90%

SMILES: CCOC(=O)C(C)Oc1ccc(Oc2cnc3cc(Cl)ccc3n2)cc1 (centres undefined) [QUIZALOFOP ETHYL ESTER]
- T/C (Mus musculus [45]): 61%
- Log kill (Mus musculus [46]): 0.42
- Activity rating (Mus musculus [47]): <0.7
- Body weight loss (Mus musculus [48]): 0%

SMILES: CC(Oc1ccc(Oc2cnc3ccc(N=[N+]=[N-])cc3n2)cc1)C(=O)O (centres undefined)
- Log kill (Mus musculus [49]): 1
- Log kill (Mus musculus [50]): 2
- Body weight loss (Mus musculus [51]): 2.9%
- Body weight loss (Mus musculus [52]): 4.3%
- T/C (Mus musculus [53]): 30%
- T/C (Mus musculus [54]): 17%

— ChEMBL document CHEMBL1134487, “Design, synthesis, and biological evaluation of analogues of the antitumor agent, 2-(4-[(7-chloro-2-quinoxalinyl)oxy]phenoxy)propionic acid (XK469)” (2001)
